Reference: paper PMC5218480 (PLoS ONE, 2017)

Tested on: MV-4-11 cells
Assay: Gene expression microarray analysis (Affymetrix PrimeView) and GSEA
Assay type: cell-based, human
Design: RFU PODN (11730768_x_at) / Fold change /veh PODN (11730768_x_at) / RFU LINC00158 (11744669_a_at) / Fold change /veh LINC00158 (11744669_a_at) / RFU DUSP10 (11751237_a_at) / Fold change /veh DUSP10 (11751237_a_at) / RFU ID3 (11757404_x_at) / Fold change /veh ID3 (11757404_x_at) / RFU PLEKHG5 (11737974_s_at) / Fold change /veh PLEKHG5 (11737974_s_at) / RFU LRRC4B (11730491_at) / Fold change /veh LRRC4B (11730491_at) / RFU GIMAP4 (11747438_a_at) / Fold change /veh GIMAP4 (11747438_a_at) / RFU KRT8 (11758183_x_at) / Fold change /veh KRT8 (11758183_x_at) / RFU CNN1 (11734310_a_at) / Fold change /veh CNN1 (11734310_a_at) / RFU VPS37D (11726825_at) / Fold change /veh VPS37D (11726825_at) / RFU C10orf10 (11716522_x_at) / Fold change /veh C10orf10 (11716522_x_at) / RFU KIR2DL2 /// KIR2DL4 /// KIR2DL5A /// KIR2DL5B /// KIR2DS1 /// KIR2DS2 /// KIR2DS3 /// KIR2DS4 /// KIR3DL3 /// KIR3DL3 /// KIR3DS1 (11738374_at) / Fold change /veh KIR2DL2 /// KIR2DL4 /// KIR2DL5A /// KIR2DL5B /// KIR2DS1 /// KIR2DS2 /// KIR2DS3 /// KIR2DS4 /// KIR3DL3 /// KIR3DL3 /// KIR3DS1 (11738374_at) / RFU C1QL1 (11718748_at) / Fold change /veh C1QL1 (11718748_at) / RFU TMPRSS4 (11747572_a_at) / Fold change /veh TMPRSS4 (11747572_a_at) / RFU HAMP (11756126_x_at) / Fold change /veh HAMP (11756126_x_at) / RFU RNFT2 (11725882_a_at) / Fold change /veh RNFT2 (11725882_a_at) / RFU NR4A2 (11747474_a_at) / Fold change /veh NR4A2 (11747474_a_at) / RFU ABCC12 (11746883_a_at) / Fold change /veh ABCC12 (11746883_a_at) / RFU TMEM136 (11760407_x_at) / Fold change /veh TMEM136 (11760407_x_at) / RFU CLDN22 /// WWC2 (11732394_at) / Fold change /veh CLDN22 /// WWC2 (11732394_at) / RFU HLA-DPB1 (11760878_x_at) / Fold change /veh HLA-DPB1 (11760878_x_at) / RFU SPINT1 (11716480_a_at) / Fold change /veh SPINT1 (11716480_a_at) / RFU GAP43 (11754022_s_at) / Fold change /veh GAP43 (11754022_s_at) / RFU A4GNT (11735810_at) / Fold change /veh A4GNT (11735810_at) / RFU PRB3 (11715151_x_at) / Fold change /veh PRB3 (11715151_x_at) / RFU TUBB4B (11761932_at) / Fold change /veh TUBB4B (11761932_at) / RFU CAPN14 (11732068_a_at) / Fold change /veh CAPN14 (11732068_a_at) / RFU TMCC2 (11721928_a_at) / Fold change /veh TMCC2 (11721928_a_at) / RFU IRGQ (11745062_a_at) / Fold change /veh IRGQ (11745062_a_at) / RFU FAM174B (11720279_a_at) / Fold change /veh FAM174B (11720279_a_at) / RFU TMPRSS4 (11748680_a_at) / Fold change /veh TMPRSS4 (11748680_a_at) / RFU FAM212B (11763350_a_at) / Fold change /veh FAM212B (11763350_a_at) / RFU PLEKHG5 (11743358_a_at) / Fold change /veh PLEKHG5 (11743358_a_at) / RFU ZSCAN30 (11745921_a_at) / Fold change /veh ZSCAN30 (11745921_a_at) / RFU CMKLR1 (11741424_a_at) / Fold change /veh CMKLR1 (11741424_a_at) / RFU LOC101060620 /// MAPK8IP1 (11723275_at) / Fold change /veh LOC101060620 /// MAPK8IP1 (11723275_at) / RFU SPTSSB (11747773_x_at) / Fold change /veh SPTSSB (11747773_x_at) / RFU PRSS12 (11739890_at) / Fold change /veh PRSS12 (11739890_at) / RFU BIN1 (11741810_x_at) / Fold change /veh BIN1 (11741810_x_at) / RFU WNT11 (11732464_a_at) / Fold change /veh WNT11 (11732464_a_at) / RFU C10orf10 (11716521_a_at) / Fold change /veh C10orf10 (11716521_a_at) / RFU C5orf56 (11738089_at) / Fold change /veh C5orf56 (11738089_at) / RFU CYB561 (11721691_x_at) / Fold change /veh CYB561 (11721691_x_at) / RFU ANKRD19P (11752326_a_at) / Fold change /veh ANKRD19P (11752326_a_at) / RFU OR2T12 /// OR2T33 /// OR2T8 (11738714_s_at) / Fold change /veh OR2T12 /// OR2T33 /// OR2T8 (11738714_s_at) / RFU VCAN (11748164_a_at) / Fold change /veh VCAN (11748164_a_at) / RFU JSRP1 (11732532_at) / Fold change /veh JSRP1 (11732532_at) / RFU KRTAP10-11 (11738290_x_at) / Fold change /veh KRTAP10-11 (11738290_x_at) / RFU MYO3A (11730013_a_at) / Fold change /veh MYO3A (11730013_a_at) / RFU EBF3 (11725865_a_at) / Fold change /veh EBF3 (11725865_a_at) / RFU CAMK2N1 (11719241_x_at) / Fold change /veh CAMK2N1 (11719241_x_at) / RFU C5orf56 (11738088_a_at) / Fold change /veh C5orf56 (11738088_a_at) / RFU OLFML3 (11715873_a_at) / Fold change /veh OLFML3 (11715873_a_at) / RFU LOC100653217 /// NTM (11731650_a_at) / Fold change /veh LOC100653217 /// NTM (11731650_a_at) / RFU MAPK11 (11762145_a_at) / Fold change /veh MAPK11 (11762145_a_at) / RFU FIZ1 (11724087_x_at) / Fold change /veh FIZ1 (11724087_x_at) / RFU OASL (11726364_x_at) / Fold change /veh OASL (11726364_x_at) / RFU SOX15 (11748057_x_at) / Fold change /veh SOX15 (11748057_x_at) / RFU CD79A (11719716_a_at) / Fold change /veh CD79A (11719716_a_at) / RFU HIST1H1D (11736915_at) / Fold change /veh HIST1H1D (11736915_at) / RFU CASKIN2 (11723855_a_at) / Fold change /veh CASKIN2 (11723855_a_at) / RFU LOC730098 (11760151_x_at) / Fold change /veh LOC730098 (11760151_x_at) / RFU OR4N2 (11742367_at) / Fold change /veh OR4N2 (11742367_at) / RFU PRRT2 (11749266_a_at) / Fold change /veh PRRT2 (11749266_a_at) / RFU SNX32 (11753110_a_at) / Fold change /veh SNX32 (11753110_a_at) / RFU CDHR5 (11726645_a_at) / Fold change /veh CDHR5 (11726645_a_at) / RFU RCAN1 (11760418_a_at) / Fold change /veh RCAN1 (11760418_a_at) / RFU FAM167A (11723789_a_at) / Fold change /veh FAM167A (11723789_a_at) / RFU FAM26E (11764081_at) / Fold change /veh FAM26E (11764081_at) / RFU ISYNA1 (11749810_s_at) / Fold change /veh ISYNA1 (11749810_s_at) / RFU ACY1 (11761880_at) / Fold change /veh ACY1 (11761880_at) / RFU 11764098_at / Fold change /veh 11764098_at / RFU SAMD14 (11745864_x_at) / Fold change /veh SAMD14 (11745864_x_at) / RFU NPB (11741838_a_at) / Fold change /veh NPB (11741838_a_at) / RFU TMPRSS6 (11731388_a_at) / Fold change /veh TMPRSS6 (11731388_a_at) / RFU KRTAP10-2 (11738614_at) / Fold change /veh KRTAP10-2 (11738614_at) / RFU ARHGAP8 /// PRR5-ARHGAP8 (11727945_x_at) / Fold change /veh ARHGAP8 /// PRR5-ARHGAP8 (11727945_x_at) / RFU KRTAP5-7 /// NADSYN1 (11734609_at) / Fold change /veh KRTAP5-7 /// NADSYN1 (11734609_at) / RFU RASL12 (11751679_a_at) / Fold change /veh RASL12 (11751679_a_at) / RFU CDKN2B (11736163_a_at) / Fold change /veh CDKN2B (11736163_a_at) / RFU PRF1 (11729649_at) / Fold change /veh PRF1 (11729649_at) / RFU, ZNF638 /// ZNF638-IT1 / Fold change vs veh, ZNF638 /// ZNF638-IT1 / RFU, PANK3 / Fold change vs veh, PANK3 / RFU, SH3YL1 / Fold change vs veh, SH3YL1 / RFU, ZEB2 / Fold change vs veh, ZEB2 / RFU, NRIP1 / Fold change vs veh, NRIP1 / RFU, PTTG1IP / Fold change vs veh, PTTG1IP / RFU, CAPN2 / Fold change vs veh, CAPN2 / RFU, MED14 / Fold change vs veh, MED14 / RFU, SNORA58 / Fold change vs veh, SNORA58 / RFU, C1orf63 / Fold change vs veh, C1orf63 / RFU, LRRFIP1 / Fold change vs veh, LRRFIP1 / RFU, NDUFAF7 / Fold change vs veh, NDUFAF7 / RFU, SLC12A2 / Fold change vs veh, SLC12A2 / RFU, IBTK / Fold change vs veh, IBTK / RFU, ESF1 / Fold change vs veh, ESF1 / Fold change vs veh, TMEM50B / RFU, TAOK1 / Fold change vs veh, TAOK1 / RFU, ACBD3 / Fold change vs veh, ACBD3 / RFU, TMA16 / Fold change vs veh, TMA16 / RFU, RWDD3 / Fold change vs veh, RWDD3 / RFU, BCAT1 / Fold change vs veh, BCAT1 / RFU, EDEM3 / Fold change vs veh, EDEM3 / RFU, TMEM33 / Fold change vs veh, TMEM33 / RFU, WDR75 / Fold change vs veh, WDR75 / RFU, AHCTF1 / Fold change vs veh, AHCTF1 / RFU, TFRC / Fold change vs veh, TFRC / RFU, ZDHHC17 / Fold change vs veh, ZDHHC17 / RFU, NOM1 / Fold change vs veh, NOM1 / RFU, ARL8B / Fold change vs veh, ARL8B / RFU, ZBTB11 / Fold change vs veh, ZBTB11 / RFU, TAMM41 / Fold change vs veh, TAMM41 / RFU, KIAA1704 /// LOC100996395 / Fold change vs veh, KIAA1704 /// LOC100996395 / RFU, ING1 / Fold change vs veh, ING1 / RFU, TRMT61B / Fold change vs veh, TRMT61B / RFU, FUBP3 / Fold change vs veh, FUBP3 / RFU, TP53 / Fold change vs veh, TP53 / RFU, TNKS2 / Fold change vs veh, TNKS2 / RFU, ZFP14 / Fold change vs veh, ZFP14 / RFU, ACTR2 / Fold change vs veh, ACTR2 / RFU, PPP3R1 / Fold change vs veh, PPP3R1 / RFU, PIK3R1 / Fold change vs veh, PIK3R1 / RFU, HNRNPA1 / Fold change vs veh, HNRNPA1 / RFU, RNF170 / Fold change vs veh, RNF170 / RFU, ZNF28 / Fold change vs veh, ZNF28 / RFU, RNGTT / Fold change vs veh, RNGTT / RFU, OGT / Fold change vs veh, OGT / RFU, BRD1 / Fold change vs veh, BRD1 / RFU, MARS / Fold change vs veh, MARS / RFU, ZNF655 / Fold change vs veh, ZNF655 / RFU, FAHD1 / Fold change vs veh, FAHD1 / RFU, BDP1 / Fold change vs veh, BDP1 / RFU, LRRCC1 / Fold change vs veh, LRRCC1 / RFU, ARID1A / Fold change vs veh, ARID1A / RFU, ZNF146 / Fold change vs veh, ZNF146 / RFU, ZNF330 / Fold change vs veh, ZNF330 / RFU, GPN3 / Fold change vs veh, GPN3 / RFU, C9orf123 / Fold change vs veh, C9orf123 / RFU, N4BP2L2 / Fold change vs veh, N4BP2L2 / RFU, ARFIP1 / Fold change vs veh, ARFIP1 / RFU, FAM179B / Fold change vs veh, FAM179B / RFU, BCL10 / Fold change vs veh, BCL10 / RFU, UHRF1BP1L / Fold change vs veh, UHRF1BP1L / RFU, BET1 / Fold change vs veh, BET1 / RFU, CNOT2 / Fold change vs veh, CNOT2 / RFU, ZNF268 / Fold change vs veh, ZNF268 / Fold change vs veh, ZNF507 / RFU, DGCR2 / Fold change vs veh, DGCR2 / RFU, WDSUB1 / Fold change vs veh, WDSUB1 / Fold change vs veh, HSP90B1 /// MIR3652 / RFU, ADSS / Fold change vs veh, ADSS / RFU, GK / Fold change vs veh, GK / RFU, ZNF148 / Fold change vs veh, ZNF148 / RFU, TAF9 / Fold change vs veh, TAF9 / RFU, SLC1A5 / Fold change vs veh, SLC1A5 / RFU, SLMO2 / Fold change vs veh, SLMO2 / RFU, ABCC4 / Fold change vs veh, ABCC4 / RFU, LOC101060439 /// RAP1B / Fold change vs veh, LOC101060439 /// RAP1B / RFU, RFX7 / Fold change vs veh, RFX7 / RFU, GTPBP10 / Fold change vs veh, GTPBP10 / RFU, CNEP1R1 / Fold change vs veh, CNEP1R1 / RFU, BIVM-ERCC5 /// ERCC5 / Fold change vs veh, BIVM-ERCC5 /// ERCC5 / RFU, ILF3 / Fold change vs veh, ILF3 / RFU 11762660_at / Fold change /veh 11762660_at / RFU VCAN (11757783_s_at) / Fold change /veh VCAN (11757783_s_at) / RFU DDX43 (11728927_at) / Fold change /veh DDX43 (11728927_at) / RFU KRT8 (11758188_x_at) / Fold change /veh KRT8 (11758188_x_at) / RFU NKD1 (11759106_at) / Fold change /veh NKD1 (11759106_at) / RFU SRD5A1 (11742802_a_at) / Fold change /veh SRD5A1 (11742802_a_at) / RFU TPSAB1 /// TPSB2 (11721975_s_at) / Fold change /veh TPSAB1 /// TPSB2 (11721975_s_at) / RFU GSTM3 (11746129_a_at) / Fold change /veh GSTM3 (11746129_a_at) / RFU IL23R (11737362_x_at) / Fold change /veh IL23R (11737362_x_at) / RFU TMEM51 (11727254_a_at) / Fold change /veh TMEM51 (11727254_a_at) / RFU PIWIL2 (11732686_x_at) / Fold change /veh PIWIL2 (11732686_x_at) / RFU ORM1 (11744905_x_at) / Fold change /veh ORM1 (11744905_x_at) / RFU CCDC152 (11743942_at) / Fold change /veh CCDC152 (11743942_at) / RFU ECM1 (11717891_a_at) / Fold change /veh ECM1 (11717891_a_at) / RFU IL23R (11748794_a_at) / Fold change /veh IL23R (11748794_a_at) / RFU TNFAIP8L3 (11732012_x_at) / Fold change /veh TNFAIP8L3 (11732012_x_at) / RFU MBOAT4 (11741988_at) / Fold change /veh MBOAT4 (11741988_at) / RFU 11764193_at / Fold change /veh 11764193_at / RFU TMEM53 (11763286_at) / Fold change /veh TMEM53 (11763286_at) / RFU MAGEB2 (11727129_at) / Fold change /veh MAGEB2 (11727129_at) / RFU TMEM200A (11744735_a_at) / Fold change /veh TMEM200A (11744735_a_at) / RFU CCDC152 (11751479_a_at) / Fold change /veh CCDC152 (11751479_a_at) / RFU FAM211A (11726209_a_at) / Fold change /veh FAM211A (11726209_a_at) / RFU RGS16 (11746705_a_at) / Fold change /veh RGS16 (11746705_a_at) / RFU VCAN (11755009_s_at) / Fold change /veh VCAN (11755009_s_at) / RFU RHOB (11743442_s_at) / Fold change /veh RHOB (11743442_s_at) / RFU RGS16 (11720943_a_at) / Fold change /veh RGS16 (11720943_a_at) / RFU RGS16 (11720944_at) / Fold change /veh RGS16 (11720944_at) / RFU, VPS4B / Fold change vs veh, VPS4B / RFU, CREB1 / Fold change vs veh, CREB1 / RFU, DNAJC13 / Fold change vs veh, DNAJC13 / RFU, GNAQ / Fold change vs veh, GNAQ / RFU, CDK5R1 / Fold change vs veh, CDK5R1 / RFU, ZRANB3 / Fold change vs veh, ZRANB3 / RFU, CUL4A / Fold change vs veh, CUL4A / RFU, CCNY / Fold change vs veh, CCNY / RFU, UFL1 / Fold change vs veh, UFL1 / RFU, COG3 / Fold change vs veh, COG3 / RFU, DIAPH2 / Fold change vs veh, DIAPH2 / RFU, SKA2 / Fold change vs veh, SKA2 / RFU, AFF3 / Fold change vs veh, AFF3 / RFU, LMF1 / Fold change vs veh, LMF1 / RFU, IPO11 / Fold change vs veh, IPO11 / RFU, DFFB / Fold change vs veh, DFFB / RFU, FOXP1 / Fold change vs veh, FOXP1 / RFU, CARD8 / Fold change vs veh, CARD8 / RFU, STRN3 / Fold change vs veh, STRN3 / RFU, ADK / Fold change vs veh, ADK / RFU, RASSF2 / Fold change vs veh, RASSF2 / RFU, WIPF1 / Fold change vs veh, WIPF1 / RFU, LARP1B / Fold change vs veh, LARP1B / RFU, RASA1 / Fold change vs veh, RASA1 / RFU, RB1 / Fold change vs veh, RB1 / RFU, PPFIA1 / Fold change vs veh, PPFIA1 / RFU, MAT2A / Fold change vs veh, MAT2A / RFU, CCT5 / Fold change vs veh, CCT5 / RFU, WDR92 / Fold change vs veh, WDR92 / RFU, CUX1 / Fold change vs veh, CUX1 / RFU, TTC7A / Fold change vs veh, TTC7A / RFU, TMEM135 / Fold change vs veh, TMEM135 / RFU, DEPTOR / Fold change vs veh, DEPTOR / RFU, CPM / Fold change vs veh, CPM / RFU, DNAJB6 / Fold change vs veh, DNAJB6 / RFU, CACNA2D3 / Fold change vs veh, CACNA2D3 / RFU, DTX4 / Fold change vs veh, DTX4 / RFU, TFCP2 / Fold change vs veh, TFCP2 / RFU, GMCL1 /// GMCL1P1 / Fold change vs veh, GMCL1 /// GMCL1P1 / RFU, AEBP2 / Fold change vs veh, AEBP2 / RFU, SNHG1 /// SNORD22 /// SNORD25 /// SNORD26 /// SNORD27 /// SNORD28 /// SNORD29 /// SNORD31 / Fold change vs veh, SNHG1 /// SNORD22 /// SNORD25 /// SNORD26 /// SNORD27 /// SNORD28 /// SNORD29 /// SNORD31 / Fold change (Aza/veh), C12orf56 (ProbeSet 11735607_a_at) / Fold change (ACY-1035/veh), C12orf56 (ProbeSet 11735607_a_at) / Fold change (Aza/veh), FGFR1OP (ProbeSet 11751329_s_at) / Fold change (ACY-1035/veh), FGFR1OP (ProbeSet 11751329_s_at) / Fold change (Aza/veh), VPS36 (ProbeSet 11739960_a_at) / Fold change (ACY-1035/veh), VPS36 (ProbeSet 11739960_a_at) / RFU SYPL1 (11715823_x_at) / Fold change /veh SYPL1 (11715823_x_at) / RFU IGFBP7 (11715501_s_at) / Fold change /veh IGFBP7 (11715501_s_at) / RFU REEP3 (11722064_at) / Fold change /veh REEP3 (11722064_at) / RFU IGLL1 (11728026_x_at) / Fold change /veh IGLL1 (11728026_x_at): dose or concentration left out as unconfirmed
Settings: ProbeSet 11717308_a_at; LIST B

With Nc1ccc(-c2cccs2)cc1NC(=O)c1ccc2c(c1)cc(C1CC1)n2CCN1CCOCC1 [ACY-1035] the “RFU, WDR75” value was 291.65 RFU.
